Source: patent US7019135B2, “Anti-viral pyrimidine nucleoside analogues” (University College Cardiff Consultants Limited, priority 2000, dated 2006)
pEC50: −log10 of the molar value. Entries after “also recorded” stand apart in the source; their conditions may differ.

Assays:
cytomegalo virus (CMV) = test: anti-CMV activity in tissue culture, summary in words of the table; format: cell-based; conditions: for anti-CMV activity (in words): summary of the table data, comparison with Ganciclovir
Procedure: Each of the products of Examples 1 to 9 was tested in vitro in tissue cultures for toxicity and for potent antiviral actions with respect to cytomegalo virus (CMV). EC50/μM CMV-AD169 is the drug concentration in μM required to reduce by 50% CMV strain AD169 induced cytopathicity in human embryonic lung fibroblast (HEL) cells measured 7 days post infection compared to untreated control. EC50/μM CMV Davis is the drug concentration in μM required to reduce by 50% CMV strain Davis induced cytopathicity in human embryonic lung fibroblast (HEL) cells measured 7 days post infection compared to untreated control.

CMV strain AD169 = CMV strain AD169 induced cytopathicity in HEL cells; format: cell-based, cytomegalo virus; conditions: Human betaherpesvirus 5, AD169, 168 h, 50% reduction of virus induced cytopathicity, 7 days post infection
Procedure: (§1) Each of the products of Examples 1 to 9 was tested in vitro in tissue cultures for toxicity and for potent antiviral actions with respect to cytomegalo virus (CMV). EC50/μM CMV-AD169 is the drug concentration in μM required to reduce by 50% CMV strain AD169 induced cytopathicity in human embryonic lung fibroblast (HEL) cells measured 7 days post infection compared to untreated control. Further details of the methodology employed can be found in McGuigan et al. J. Med. Chem., 1999, 42, 4479-4484.

[1] = concentration required to reduce the cell number by 50%; format: cell-based; conditions: human, human embryonic lung cells; concentration reducing the cell number by 50%
Procedure: (§2) Each of the products of Examples 1 to 9 was tested in vitro in tissue cultures for toxicity and for potent antiviral actions with respect to cytomegalo virus (CMV). CC50/μM is the compound concentration required to reduce the cell number by 50%. Further details of the methodology employed can be found in McGuigan et al. J. Med. Chem., 1999, 42, 4479-4484.

[2] = test system: human embryonic lung cells; test: minimum cytotoxic concentration to human embryonic lung cells; format: cell-based; conditions: for MCC/μM: minimum cytotoxic concentration, human embryonic lung cells; for toxicity (in words): summary of the table data
Procedure: as §2, with “MCC/μM” for “CC50/μM”, “minimum cytotoxic” for “compound”, “concentration” for “concentration required”, “human embryonic lung cells.” for “reduce the cell number by 50%.”

CMV strain Davis = CMV strain Davis induced cytopathicity in HEL cells; format: cell-based, cytomegalo virus; conditions: Human betaherpesvirus 5, 168 h, 50% reduction of virus induced cytopathicity, 7 days post infection
Procedure: as §1, with “CMV Davis” for “CMV-AD169”, “Davis” for “AD169”

CMV [3] = conditions: in vitro; Can. J. Chem. 74, 1609, 1996; cited from earlier work
HSV-1 = conditions: in vitro; Can. J. Chem. 74, 1609, 1996; cited from earlier work
HSV-2 = conditions: in vitro; Can. J. Chem. 74, 1609, 1996; cited from earlier work
VZV = conditions: in vitro; Can. J. Chem. 74, 1609, 1996; cited from earlier work
CMV [4] = conditions: said in WO 98/49177; cited from earlier work
VZV YS strain = VZV YS strain induced cytopathicity in HEL cells; format: cell-based, Varicella zoster virus; conditions: Human alphaherpesvirus 3, 168 h, 50% reduction of VZV induced cytopathicity, 7 days post infection
Procedure: (§3) The compound of Example 3 wherein R is -nC10H21 was tested to assess its potency against VZV. Employing the equivalent EC50 assay as set out above, namely a measurement of the drug concentration required to reduce by 50% the VZV induced cytopathicity in human embryonic fibroblast (HEL) measured 7 days post infection, a concentration of 40 μM was found with respect to VZV OKA strain and a concentration of 20 μM was measured with respect to VZV YS strain.

VZV OKA strain = VZV OKA strain induced cytopathicity in HEL cells; format: cell-based, Varicella zoster virus; conditions: Human alphaherpesvirus 3, HEL, 168 h, read-out: EC50 VZV OKA strain
Procedure: as §3

[5] = test system: Varicella zoster virus (VZV); conditions: said in WO 98/49177; cited from earlier work

Structure (SMILES): O=c1nc2oc(CCCCCCCCCOCCCCCl)cc2cn1C1CCC(CO)O1 [Example 9, 3-(2′-3′-Dideoxy-β-D-ribofuranosyl)-6-[9-(4-chlorobutoxy)nonyl]-2,3-dihydrofuro[2,3-d]pyrimidin-2-one]
- anti-CMV activity (in words) (cytomegalo virus (CMV)): potent anti-CMV activity
- EC50 (CMV strain AD169): 2.6 µM
- CC50 [1]: > 200 µM
- MCC/μM [2]: 20 µM
- toxicity (in words) [2]: toxicity greater than any of the compounds of Examples 1, 3, 4, 5 and 6
- EC50 (CMV strain Davis): 1 µM

Structure (SMILES): CCCCCCCCCCCc1cc2cn(C3CCC(CO)O3)c(=O)nc2o1 [Example 7, 3-[2′,3′-dideoxy-ribo-β-D-furanosyl]-6-undecyl-2,3-dihydrofuro[2,3-d]pyrimidin-2-one]
- anti-CMV activity (in words) (cytomegalo virus (CMV)): potent anti-CMV activity
- EC50 (CMV strain AD169): 1.4 µM
- CC50 [1]: > 200 µM
- MCC/μM [2]: 50 µM
- toxicity (in words) [2]: toxicity greater than any of the compounds of Examples 1, 3, 4, 5 and 6
- EC50 (CMV strain Davis): 1.2 µM

Structure (SMILES): CCCCCCc1cc2cn(C3CCC(CO)O3)c(=O)nc2o1 [Example 1, 3-[2′,3′-dideoxy-ribo-β-D-furanosyl]-6-hexyl-2,3-dihydrofuro[2,3-d]pyrimidin-2-one]
- EC50 (CMV strain AD169): 32 µM
- CC50 [1]: 143 µM
- MCC/μM [2]: 200 µM
- EC50 (CMV strain Davis): > 50 µM

Structure (SMILES): CCCCCCCCCCCCCCc1cc2cn(C3CCC(CO)O3)c(=O)nc2o1 [Example 5, 3-[2′,3′-dideoxy-ribo-β-D-furanosyl]-6-tetradecyl-2,3-dihydrofuro[2,3-d]pyrimidin-2-one]
- EC50 (CMV strain AD169): 25 µM
- CC50 [1]: > 200 µM
- MCC/μM [2]: 200 µM
- EC50 (CMV strain Davis): 40 µM

Structure (SMILES): O=c1nc2occc2cn1C1CC(O)C(CO)O1 (centres unmarked)
- activity against CMV (in words) (CMV [3]): inactive
- activity against HSV-1 (in words) (HSV-1): inactive
- activity against HSV-2 (in words) (HSV-2): inactive
- activity against VZV (in words) (VZV): inactive

Structure (SMILES): O=c1nc2oc(CCCCCCCCCCl)cc2cn1C1CC(O)C(CO)O1 (centres unmarked) [6-(9-chlorononyl)-3-(4-hydroxy-5-(hydroxymethyl)tetrahydro-2-furanyl)-2,3-dihydrofuro[2,3,-d] pyrimidin-2-one]
- anti-CMV activity (in words) (CMV [4]): demonstrate anti-CMV activity

Structure (SMILES): CCCCCCCCCc1cc2cn(C3CCC(CO)O3)c(=O)nc2o1 [Example 6, 3-[2′,3′-dideoxy-ribo-β-D-furanosyl]-6-nonyl-2,3-dihydrofuro[2,3-d]pyrimidin-2-one]
- anti-CMV activity (in words) (cytomegalo virus (CMV)): potent anti-CMV activity; also recorded: at least comparable to that of the known drug Ganciclovir
- EC50 (CMV strain AD169): 1.2 µM
- CC50 [1]: > 200 µM
- MCC/μM [2]: 200 µM
- toxicity (in words) [2]: acceptable level of toxicity
- EC50 (CMV strain Davis): 1.3 µM

Structure (SMILES): Nc1nc(O)c2ncn(COC(CO)CO)c2n1 [Ganciclovir, reference compound]
- EC50 (CMV strain AD169): 2.6 µM
- MCC/μM [2]: >150 µM
- EC50 (CMV strain Davis): 3.4 µM

Structure (SMILES): CCCCOCCCCCCCCCc1cc2cn(C3CCC(CO)O3)c(=O)nc2o1 [Example 8, 3-(2′-3′-Dideoxy-β-D-ribofuranosyl)-6-[9-butyloxynonyl]-2,3-dihydrofuro[2,3-d]pyrimidin-2-one]
- anti-CMV activity (in words) (cytomegalo virus (CMV)): potent anti-CMV activity
- EC50 (CMV strain AD169): 1.2 µM
- CC50 [1]: 200 µM
- MCC/μM [2]: 5 µM
- toxicity (in words) [2]: toxicity greater than any of the compounds of Examples 1, 3, 4, 5 and 6
- EC50 (CMV strain Davis): 1 µM

Structure (SMILES): CCCCCCCCCCc1cc2cn(C3CCC(CO)O3)c(=O)nc2o1 [Example 3, 3-[2′,3′-dideoxy-ribo-β-D-furanosyl]-6-decyl-2,3-dihydrofuro[2,3-d]pyrimidin-2-one]
- activity against CMV compared with VZV (in words) (cytomegalo virus (CMV); CMV versus VZV EC50): substantially more active against CMV, than against VZV
- anti-CMV activity (in words) (cytomegalo virus (CMV)): at least comparable to that of the known drug Ganciclovir
- pEC50 (VZV YS strain): 4.70
- EC50 (CMV strain AD169): 2.6 µM
- CC50 [1]: > 200 µM
- MCC/μM [2]: >200 µM
- toxicity (in words) [2]: acceptable level of toxicity
- pEC50 (VZV OKA strain): 4.40
- EC50 (CMV strain Davis): 3.2 µM

Structure (SMILES): CCCCCCCCCCc1cc2cn([C@H]3C[C@H](O)[C@@H](CO)O3)c(=O)nc2o1 [3-(2′-deoxy-β-D-ribofuranosyl)-6-decyl-2,3-dihydrofuro[2,3-d]pyrimidin-2-one]
- anti-Varicella zoster virus (VZV) activity (in words) [5]: potent

Structure (SMILES): CCCCCCCCCCCCc1cc2cn(C3CCC(CO)O3)c(=O)nc2o1 [Example 4, 3-[2′,3′-dideoxy-ribo-β-D-furanosyl]-6-dodecyl-2,3-dihydrofuro[2,3-d]pyrimidin-2-one]
- anti-CMV activity (in words) (cytomegalo virus (CMV)): at least comparable to that of the known drug Ganciclovir
- EC50 (CMV strain AD169): 3.7 µM
- CC50 [1]: > 200 µM
- MCC/μM [2]: 200 µM
- toxicity (in words) [2]: acceptable level of toxicity
- EC50 (CMV strain Davis): 5 µM

Structure (SMILES): CCCCCCCCc1cc2cn(C3CCC(CO)O3)c(=O)nc2o1 [Example 2, 3-[2′3′-dideoxy-ribo-β-D-furanosyl]-6-octyl-2,3-dihydrofuro[2,3-d]pyrimidin-2-one]
- anti-CMV activity (in words) (cytomegalo virus (CMV)): potent anti-CMV activity
- EC50 (CMV strain AD169): 1.5 µM
- CC50 [1]: 112 µM
- MCC/μM [2]: 20 µM
- toxicity (in words) [2]: toxicity greater than any of the compounds of Examples 1, 3, 4, 5 and 6
- EC50 (CMV strain Davis): 2.4 µM
